Reference: publication PMC3909471 (European journal of medicinal chemistry, 2013)

Assays:
[1] = target: human CB2 cannabinoid receptor (Homo sapiens, UniProt P34972); experiment: [3H]CP55,940 radioligand competition binding, human CB2
[2] = target: rat CB1 cannabinoid receptor (Rattus norvegicus, UniProt P20272); experiment: [3H]CP55,940 radioligand competition binding, rat CB1; conditions: removal of the methyl moiety from the N-methylpiperazine analogue
human CB2 receptors [3] = target: T1, human CB2 receptors (Homo sapiens, UniProt P34972); experiment: Effect on CP55,940-induced CB2 internalization in hCB2 cells; assay type: cell-based; conditions: 10 nM CP55,940 cotreated with 3 uM compound
[4] = tested on: L5 and L6 spinal nerve ligation neuropathic pain model in rats; experiment: Spinal nerve ligation neuropathic pain model, von Frey paw withdrawal threshold; assay type: in vivo, rat; conditions: intraperitoneally 5 – 20 mg/kg
human CB2 receptors [5] = target: T1, human CB2 receptors; experiment: hCB2 receptor internalization; assay type: cell-based; conditions: at 10 μM as printed in text

T1 sequence (P34972 whole entry): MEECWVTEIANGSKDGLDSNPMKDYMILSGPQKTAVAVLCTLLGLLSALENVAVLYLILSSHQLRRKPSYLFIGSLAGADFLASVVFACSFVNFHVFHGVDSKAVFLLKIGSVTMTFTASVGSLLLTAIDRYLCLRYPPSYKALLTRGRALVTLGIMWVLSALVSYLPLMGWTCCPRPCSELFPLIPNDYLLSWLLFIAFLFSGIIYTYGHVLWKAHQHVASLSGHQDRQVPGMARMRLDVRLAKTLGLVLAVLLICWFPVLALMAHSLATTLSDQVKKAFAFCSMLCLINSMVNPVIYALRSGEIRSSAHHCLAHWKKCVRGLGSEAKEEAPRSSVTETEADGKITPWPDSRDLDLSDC
human CB2 cannabinoid receptor, sequence (P34972 whole entry): as above
rat CB1 cannabinoid receptor, sequence (P20272 whole entry): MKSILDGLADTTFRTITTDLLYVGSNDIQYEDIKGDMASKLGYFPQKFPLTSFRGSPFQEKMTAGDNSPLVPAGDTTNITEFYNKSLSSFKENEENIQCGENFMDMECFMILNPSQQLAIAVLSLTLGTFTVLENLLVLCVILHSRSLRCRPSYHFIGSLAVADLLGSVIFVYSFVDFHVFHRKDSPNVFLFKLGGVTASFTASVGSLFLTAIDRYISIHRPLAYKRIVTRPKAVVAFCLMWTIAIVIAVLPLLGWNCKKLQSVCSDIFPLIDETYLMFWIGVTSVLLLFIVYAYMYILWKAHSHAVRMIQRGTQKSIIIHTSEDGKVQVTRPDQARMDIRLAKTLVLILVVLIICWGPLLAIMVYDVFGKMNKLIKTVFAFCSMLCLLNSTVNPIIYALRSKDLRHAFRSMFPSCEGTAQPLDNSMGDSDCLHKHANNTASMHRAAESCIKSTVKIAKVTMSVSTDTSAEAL

## CCCCCn1c2ccccc2c2cc(C(=O)N3CCN(C)CC3)ccc21 [Compound 9, (4-Methylpiperazin-1-yl)(9-pentyl-9H-carbazol-3-yl)methanone]
[1]; compared to the piperidine analogue 4
  Improvement of CB2 selectivity: 3 fold

## CCCCCn1c2ccccc2c2cc(C(=O)N3CCNCC3)ccc21 [Compound 15, (9-Pentyl-9H-carbazol-3-yl)(piperazin-1-yl)methanone]
[2]
  Decrease of CB1 affinity: 4 fold

## CCCCCn1c2ccccc2c2cc(C(=O)c3ccccc3)ccc21 [Compound 18, (9-Pentyl-9H-carbazol-3-yl)(phenyl)methanone]
Human CB2 receptors [3]
  Reduction of hCB2 internalization induced by CP55,940: more than 50%

## CCCCCn1c2ccccc2c2cc(C(=O)NCC(C)(C)C)ncc21 [Compound 35, N-(2,2-dimethylpropyl)-9-pentyl-9H-pyrido[3,4-b]indole-3-carboxamide]
Human CB2 receptors [3]
  Reduction of hCB2 internalization induced by CP55,940: more than 50%

## CS(=O)(=O)NCCCn1c2ccccc2c2cc(C(=O)N3CCCCC3)ccc21 [Compound 64, N-(3-(3-(Piperidine-1-carbonyl)-9H-carbazol-9-yl)propyl)methanesulfonamide]
[4]
  Tactile allodynia (paw withdrawal threshold, von Frey filaments): significantly attenuated tactile allodynia in a dose-dependent manner

## O=C(c1ccc2c(c1)c1ccccc1n2Cc1ccncc1)N1CCCCC1 [Compound 74, Piperidin-1-yl(9-(pyridin-4-ylmethyl)-9H-carbazol-3-yl)methanone]
[1]; 4-methylpyridine replacing the 4-methyltetrahydropyran fragment (vs 69)
  Improvement in CB2 selectivity: 4 fold

## CCCCCn1c2ccc(C(=O)N3CCCCC3)cc2c2ccc(OC)cc21 [Compound 81, (7-Methoxy-9-pentyl-9H-carbazol-3-yl)(piperidin-1-yl)methanone]
Human CB2 receptors [5]
  CB2 internalization: failed to internalize CB2
Human CB2 receptors [3]
  Reduction of hCB2 internalization induced by CP55,940: reduced compound CP55,940-induced internalization
